Among the data in US20260152484A1, “HETEROCYCLIC COMPOUNDS AS TRIGGERING RECEPTOR EXPRESSED ON MYELOID CELLS 2 AGONISTS” (Vigil Neuroscience, Inc., priority 2021, published 2026) are EC50 values, retold here.

The first experiment deals with T1, human TREM2 (Homo sapiens, UniProt Q9NZC2).
T1 construct: expressed in transfected cells; host or cells: HEK293T (HEK293T-hTREM2 cells)
T1 sequence (Q9NZC2 19-230): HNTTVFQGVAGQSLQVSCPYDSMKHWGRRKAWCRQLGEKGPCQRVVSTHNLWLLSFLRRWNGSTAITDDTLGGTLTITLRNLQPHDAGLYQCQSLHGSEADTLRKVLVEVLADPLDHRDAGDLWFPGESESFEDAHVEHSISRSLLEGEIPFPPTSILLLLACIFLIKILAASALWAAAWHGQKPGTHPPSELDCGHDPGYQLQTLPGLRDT
T1 sequence (O43914 22-113 partner): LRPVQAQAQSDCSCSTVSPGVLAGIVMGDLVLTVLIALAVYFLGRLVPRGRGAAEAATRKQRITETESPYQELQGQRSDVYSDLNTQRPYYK
In words: Cellular phosphorylation of Syk (AlphaLisa) in HEK293T-hTREM2 cells, TREM2 agonist potency. Format: cell-based. The note with it: HEK293 cells expressing human TREM2 and DAP12; pSyk AlphaLisa; Table D. The protocol:
In Vitro Measurement of Triggering Receptor Expressed on Myeloid Cells 2 Activity Using Cellular Phosphorylation of Spleen Tyrosine Kinase (“Syk”) Assays
Measurement of TREM2 agonist potency was done using a HEK cell line expressing human TREM2 and DAP12 (HEK293T-hTREM2 cells). Binding of small molecules to, and activation of, TREM2 increases the phosphorylation of Syk. The resultant levels of Syk phosphorylation are measured using a commercial AlphaLisa reagent kit. To perform the assay, HEK-hTREM2 cells were plated at 14,000 cells per well in a 384 well plate, in 25 μL of complete growth media and incubated at 37° C., 5% CO2 for 20-24 hours.
Prior to the assay, test compounds were diluted in the 384 well plates in assay buffer and allowed to equilibrate for 30 minutes. Growth media was removed from cell plates by inversion on blotting paper, and 25 μL of test articles in assay buffer was added to cells. Cells were incubated for 45 minutes at room temperature. After 45 minutes, assay buffer was removed and 10 μL of lysis buffer was added. Plates were shaken for 20 minutes at 350 RPM at room temperature. After complete lysis, AlphaLisa reagents were added to the lysate, and fluourescence intensity was measured using a Perkin Elmer Envision plate reader. Intensities were used to generate a standard curve, and % activation was calculated. Curve fitting was performed using Prism v9 software, log(agonist) vs response—variable slope (four parameters), and EC50s were calculated from the curve fit.
The results presented in Table D have been generated with the in vitro assay described above. This assay may be used to test any of the compounds described herein to assess and characterize a compound's ability to act as an agonist of TREM2.
In turn, `CC(=O)N1CCC(n2nc(-c3ccc(Cl)cc3)c3cc(Cl)c(Cl)cc3c2=O)CC1` [compound 13, 2-(1-acetylpiperidin-4-yl)-6,7-dichloro-4-(4-chlorophenyl)phthalazin-1(2H)-one] registered an EC50 of 3 to 100 µM.
The same measure, in the same setting: next, `Cc1nc2c(=O)n(C(C)c3ccc(Cl)cc3)nc(-c3ccc(Cl)cc3)c2s1` (centres unmarked) [compound 27, 7-(4-chlorophenyl)-5-(1-(4-chlorophenyl)ethyl)-2-methylthiazolo[4,5-d]pyridazin-4(5H)-one]: 3 to 100 µM; `Cc1cc2c(-c3ccc(Cl)cc3)nn(-c3ccnc(C4CNC4)c3)c(=O)c2cc1C` [compound 16, 2-(2-(azetidin-3-yl)pyridin-4-yl)-4-(4-chlorophenyl)-6,7-dimethylphthalazin-1(2H)-one]: 0.5 to 3 µM; `Cc1nc2c(=O)n(-c3ccc(C(=O)NC(C)C)cc3)nc(-c3ccc(Cl)cc3)c2s1` [compound 38, 4-(7-(4-chlorophenyl)-2-methyl-4-oxothiazolo[4,5-d]pyridazin-5(4H)-yl)-N-isopropylbenzamide]: 3 to 100 µM.
The same measure, in the same setting: as for `Cc1nc2c(=O)n(CCc3ccccc3)nc(-c3ccc(Cl)c(Cl)c3)c2s1` [compound 32, 7-(3,4-dichlorophenyl)-2-methyl-5-phenethylthiazolo[4,5-d]pyridazin-4(5H)-one], the figure is 3 to 100 µM; as for `CC(C)n1ccc(-n2nc(-c3ccc(Cl)cc3)c3cc(Cl)c(Cl)cc3c2=O)cc1=O` [compound 11, 6,7-dichloro-4-(4-chlorophenyl)-2-(1-isopropyl-2-oxo-1,2-dihydropyridin-4-yl)phthalazin-1(2H)-one], 0.5 to 3 µM; as for `Cc1nc2c(=O)n(CC(C)c3ccc(Cl)cc3)nc(-c3ccc(Cl)cc3)c2s1` (centres unmarked) [compound 31, 7-(4-chlorophenyl)-5-(2-(4-chlorophenyl)propyl)-2-methylthiazolo[4,5-d]pyridazin-4(5H)-one], 3 to 100 µM.
Still for that read-out and setting: next, `Cc1cc2c(-c3ccc(Cl)cc3)nn(-c3ccc(OC(F)(F)F)cc3)c(=O)c2cc1C` [compound 10, 4-(4-chlorophenyl)-6,7-dimethyl-2-(4-(trifluoromethoxy)phenyl)phthalazin-1(2H)-one]: 0.5 to 3 µM.
In turn, `Cc1nc2c(=O)n(-c3ccc(OC(F)(F)F)cc3)nc(-c3ccc(Cl)cc3)c2s1` [compound 41, 7-(4-chlorophenyl)-2-methyl-5-(4-(trifluoromethoxy)phenyl)thiazolo[4,5-d]pyridazin-4(5H)-one] yielded an EC50 of 3 to 100 µM.
On the same count and under the same terms, next, `Cc1cc2c(-c3ccc(Cl)cc3)nn(-c3ccnc(C4CCN(C(=O)OC(C)(C)C)CC4)c3)c(=O)c2cc1C` [compound 22, tert-butyl 4-(4-(4-(4-chlorophenyl)-6,7-dimethyl-1-oxophthalazin-2(1H)-yl)pyridin-2-yl)piperidine-1-carboxylate]: 0.5 to 3 µM.
The same measure, in the same setting: next, `Cc1nc2c(=O)n(CCc3ccccc3)nc(-c3ccc(O)cc3)c2s1` [compound 39, 7-(4-hydroxyphenyl)-2-methyl-5-phenethylthiazolo[4,5-d]pyridazin-4(5H)-one]: 3 to 100 µM; `CN1CCC(n2nc(-c3ccc(Cl)cc3)c3cc(Cl)c(Cl)cc3c2=O)CC1=O` (centres unmarked) [compound 21, 6,7-dichloro-4-(4-chlorophenyl)-2-(1-methyl-2-oxopiperidin-4-yl)phthalazin-1(2H)-one]: 3 to 100 µM.
The compound `CNC(Cn1nc(-c2ccc(Cl)cc2)c2sc(C)nc2c1=O)c1ccc(Cl)cc1` (centres unmarked) [compound 25, 7-(4-chlorophenyl)-5-(2-(4-chlorophenyl)-2-(methylamino)ethyl)-2-methylthiazolo[4,5-d]pyridazin-4(5H)-one] gave an EC50 of 3 to 100 µM.
Turning to `O=c1c2nc(NCCc3ccccc3)sc2c(-c2ccc(Cl)cc2)nn1CCc1ccccc1` [compound 37, 7-(4-chlorophenyl)-5-(2-phenylethyl)-2-(2-phenylethylamino)thiazolo[4,5-d]pyridazin-4-one], the EC50 was 3 to 100 µM.
Still for that read-out and setting: as for `COc1ccc(-c2nn(CCc3ccccc3)c(=O)c3nc(C)sc23)cc1` [compound 40, 7-(4-methoxyphenyl)-2-methyl-5-phenethylthiazolo[4,5-d]pyridazin-4(5H)-one], the figure is 3 to 100 µM; as for `Cc1cc2c(-c3ccc(Cl)cc3)nn(-c3ccc4c(c3)OCO4)c(=O)c2cc1C` [compound 19, 2-(benzo[d][1,3]dioxol-5-yl)-4-(4-chlorophenyl)-6,7-dimethylphthalazin-1(2H)-one], 3 to 100 µM; as for `Cc1nc2c(=O)n(CCc3ccccc3)nc(-c3ccc(Cl)cc3)c2s1` [compound 28, 7-(4-chlorophenyl)-2-methyl-5-phenethylthiazolo[4,5-d]pyridazin-4(5H)-one], 3 to 100 µM.
`Cc1nc2c(=O)n(C(C)Cc3ccc(Cl)cc3)nc(-c3ccc(Cl)cc3)c2s1` (centres unmarked) [compound 30, 7-(4-chlorophenyl)-5-(1-(4-chlorophenyl)propan-2-yl)-2-methylthiazolo[4,5-d]pyridazin-4 (5H)-one] returned an EC50 of 3 to 100 µM.
On the same count and under the same terms, as for `Cc1cc2c(-c3ccc(Cl)cc3)nn(-c3ccnc(OC4CN(C(=O)OC(C)(C)C)C4)c3)c(=O)c2cc1C` [compound 20, tert-butyl 3-((4-(4-(4-chlorophenyl)-6,7-dimethyl-1-oxophthalazin-2(1H)-yl)pyridin-2-yl)oxy)azetidine-1-carboxylate], the figure is 0.5 to 3 µM.
The compound `O=c1c2nc(NCC3CC3)sc2c(-c2ccc(Cl)cc2)nn1CCc1ccccc1` [compound 36, 7-(4-chlorophenyl)-2-(cyclopropylmethylamino)-5-(2-phenylethyl)thiazolo[4,5-d]pyridazin-4-one] had an EC50 of 3 to 100 µM.
Same read-out and setting: as for `Cc1cc2c(-c3ccc(Cl)cc3)nn(-c3ccnc(C4CCC4)c3)c(=O)c2cc1C` [compound 15, 4-(4-chlorophenyl)-2-(2-cyclobutylpyridin-4-yl)-6,7-dimethylphthalazin-1(2H)-one], the figure is 0.5 to 3 µM; as for `Cc1cc2c(-c3ccc(Cl)cc3)nn(-c3ccc(C4CC4)nc3)c(=O)c2cc1C` [compound 17, 4-(4-chlorophenyl)-2-(6-cyclopropylpyridin-3-yl)-6,7-dimethylphthalazin-1(2H)-one], 3 to 100 µM.
The same measure, in the same setting: as for `CC(C)C(=O)Nc1nc2c(=O)n(CCc3ccccc3)nc(-c3ccc(Cl)cc3)c2s1` [compound 35, N-[7-(4-chlorophenyl)-4-oxo-5-(2-phenylethyl)thiazolo[4,5-d]pyridazin-2-yl]-2-methyl-propanamide], the figure is 3 to 100 µM; as for `CC(C)Oc1cc(-n2nc(-c3ccc(Cl)cc3)c3cc(Cl)c(Cl)cc3c2=O)ccn1` [compound 12, 6,7-dichloro-4-(4-chlorophenyl)-2-(2-isopropoxypyridin-4-yl)phthalazin-1(2H)-one], 0.5 to 3 µM.

The same experiment, now with this note: HEK293 cells expressing human TREM2 and DAP12; pSyk AlphaLisa; Table D-2.
`Cc1cc2c(-c3ccc(Cl)cc3)nn(-c3ccnc(Nc4cnn(C5CC5)c4)c3)c(=O)c2nc1C` [I-120, 5-(4-chlorophenyl)-7-(2-((1-cyclopropyl-1H-pyrazol-4-yl)amino)pyridin-4-yl)-2,3-dimethylpyrido[2,3-d]pyridazin-8 (7H)-one] registered an EC50 of 0.05 to 0.5 µM.
The same measure, in the same setting: next, `Cc1cc2c(-c3ccc(Cl)cc3)nn(-c3ccnc(OC4CNC4)c3)c(=O)c2nc1C` [I-94, 7-[2-(azetidin-3-yloxy)-4-pyridyl]-5-(4-chlorophenyl)-2,3-dimethyl-pyrido[2,3-d]pyridazin-8-one; 2,2,2-trifluoroacetic acid]: 0.5 to 3 µM.
On the same count and under the same terms, next, `Cc1cc2c(-c3ccc(Cl)cc3)nn(-c3ccc(N(C)C4COC4)nc3)c(=O)c2nc1C` [I-119, 5-(4-chlorophenyl)-2,3-dimethyl-7-[6-[methyl(oxetan-3-yl)amino]-3-pyridyl]pyrido[2,3-d]pyridazin-8-one; formic acid]: 0.5 to 3 µM; `Cc1cc2c(-c3ccc(Cl)cc3)nn(-c3ccnc(C4CC(OCc5ccccc5)C4)c3)c(=O)c2cc1C` (centres unmarked) [I-109, 2-(2-(3-(benzyloxy)cyclobutyl)pyridin-4-yl)-4-(4-chlorophenyl)-6,7-dimethylphthalazin-1 (2H)-one]: 0.5 to 3 µM.
The same measure, in the same setting: as for `Cc1cc2c(-c3ccc(Cl)cc3)nn(-c3ccc(NC4COC4)nc3)c(=O)c2nc1C` [I-118, 5-(4-chlorophenyl)-2,3-dimethyl-7-[6-(oxetan-3-ylamino)-3-pyridyl]pyrido [2,3-d]pyridazin-8-one; formic acid], the figure is 0.5 to 3 µM; as for `Cc1cc2c(-c3ccc(Cl)cc3)nn(-c3ccnc(C4COC4)c3)c(=O)c2nc1C` [I-112, 5-(4-chlorophenyl)-2,3-dimethyl-7-[2-(oxetan-3-yl)-4-pyridyl]pyrido [2,3-d]pyridazin-8-one], 3 to 100 µM.
Compound `Cc1cc2c(-c3ccc(F)cc3)nn(-c3ccc(OC(F)(F)F)cc3)c(=O)c2nc1C` [I-121, 5-(4-fluorophenyl)-2,3-dimethyl-7-(4-(trifluoromethoxy)phenyl)pyrido[2,3-d]pyridazin-8 (7H)-one] showed a concentration giving a half-maximal response (EC50) of 3 to 100 µM.
On the same count and under the same terms, next, `COc1ccc(-c2nn(-c3ccnc(C4COC4)c3)c(=O)c3cc(C)c(C)cc23)cc1` [I-108, 4-(4-methoxyphenyl)-6,7-dimethyl-2-[2-(oxetan-3-yl)-4-pyridyl]phthalazin-1-one]: 0.5 to 3 µM.
